Patent US20250179126A1, “A NOVEL PEPTIDE FROM A PHOTOSYNTHETIC BACERIUM DIRECTLY TARGETS MITOCHONDRIA TO TRIGGER APOPTOSIS IN ADVANCED PROSTATE CANCER CELLS” (priority 2022, published 2025)

What was measured:
DU145 cells = assay: Annexin-V apoptosis assay by flow cytometry, DU145; format: cell-based, human; conditions: DU145, 48 hr; Ptxl 1 nM, p28 50 μM, aurA/aurB 0.5-50 μM
Description: (§1) FIG. 7A-7D: Determination of apoptotic cell death. Prostate cancer cell lines (7A: LNCaP, 7B: DU145 and 7C: PC3) and normal prostate CRL11611 cells (7D) were exposed to the indicated agents for 48 hr and stained using apoptosis assay kits according to the manufacturer's instructions. The samples were analyzed by flow cytometry. Mean±SE (N=3).
(§2) After 48 hr, annexin-V apoptosis assays (Thermo Fisher Scientific) were conducted to detect apoptotic cells. At least 10,000 cells in each case were analyzed by FACS (RRC, UIC).

[1] = Water solubility of peptides
[2] = system: PC3 prostate cancer cells; assay: MTT cell viability assay, PC3 prostate cancer cells; format: cell-based, human; conditions: PC3 (p53-null, AR−), 24-72 hr; paclitaxel 1 nM
Description: (§3) Cell lines and culture: Human cancer and noncancer (immortalized and nonimmortalized) cell lines were obtained from the American Type Culture Collection [prostate cancer (PC3, DU145 and LNCaP), normal prostate (CRL11611), breast cancer (MCF-7), ovarian cancer (SK-OV3 adenocarcinoma), lung cancer (A549)]. MDD2 breast cancer cells (p53 dominant-negative) were provided courtesy of Dr Andrei V. Gudkov, Roswell Park Cancer Institute. 20 All cell lines were cultured in MEM-E (Invitrogen) supplemented with 10% heat-inactivated fetal bovine serum (Atlanta Biological, Inc.), 100 units/mL penicillin, and 100 μg/mL streptomycin at 37° C. in 5% CO2.

PC3 cells [3] = assay: JC-1 mitochondrial membrane potential assay; format: cell-based, human; conditions: PC3, 1, 10 and 100 μM
Description: Cells were stained by using JC-1 Mitochondrial Membrane Potential Assay Kits according to the manufacturer's instructions to measure mitochondrial membrane potential, and fluorescence was measured by flow cytometry. 9B, Caspase-3 is involved in aurB-induced apoptosis. […] The inhibitor was used at the indicated concentrations. Mean±SE (N=3).
JC-1 dye (Invitrogen) was used to determine mitochondrial membrane potential. […] After washing with PBS, trypsinized PC3 cells were incubated with JC-1 dye and analyzed by FACS.

[4] = system: normal prostate CRL11611 cells; assay: Annexin-V apoptosis assay by flow cytometry, normal prostate CRL11611; format: cell-based, human; conditions: normal CRL11611, 48 hr; Ptxl 1 nM, p28 50 μM, aurA/aurB 0.5-50 μM
Description: as §1, §2

LNCaP cells = assay: Annexin-V apoptosis assay by flow cytometry, LNCaP; format: cell-based, human; conditions: 48 hr, Ptxl 1 nM, p28 50 μM, aurA/aurB 0.5-50 μM
Description: as §1, §2

PC3 cells [5] = assay: Cellular membrane toxicity, LDH leakage assay; format: cell-based, human; conditions: PC3, 0.2-200 μM, 37° C.
Description: FIG. 6A-6B: Cellular membrane toxicity assays. […] Cells treated with lysis buffer were defined as having 100% LDH release. Mean±SE (N=3).
Cellular membrane toxicity: LDH assays were performed as we previously described (Cha et al., Cancer Research 2020, 80: 1615-1623).

[6] = system: LNCaP prostate cancer cells; assay: MTT cell viability assay, LNCaP prostate cancer cells; format: cell-based, human; conditions: LNCaP (p53 wild-type, AR+), 24-72 hr; paclitaxel 1 nM
Description: as §3

Human cancer cells = assay: MTT cell viability assay, human cancer cell panel; format: cell-based; conditions: 5-100 μM, 24 hr, 37° C.
Description: (§4) Cell viability was detected by MTT assays, and the control (PBS-treated) cells were considered 100% viable. Mean±SE (N=3). *P<0.05, **P<0.01, ***P<0.001.
Cytotoxicity assay: The MTT assay was performed as we previously described (Cha et al., Cancer Research 2020, 80: 1615-1623).

[7] = target: T1, mitochondrial ATP synthase gamma subunit (ATP5C) (Homo sapiens, UniProt P36542); assay: Pull-down assay with biotin-labeled peptides and protein identification; format: binding; conditions: mitochondrial fraction of PC3 cells, biotin-labeled peptide, 16 hr at 4° C.
T1 construct: endogenous in cells; host or cells: PC3 human prostate cancer cells, mitochondrial fraction (detergent extract)
T1 sequence (P36542 26-298): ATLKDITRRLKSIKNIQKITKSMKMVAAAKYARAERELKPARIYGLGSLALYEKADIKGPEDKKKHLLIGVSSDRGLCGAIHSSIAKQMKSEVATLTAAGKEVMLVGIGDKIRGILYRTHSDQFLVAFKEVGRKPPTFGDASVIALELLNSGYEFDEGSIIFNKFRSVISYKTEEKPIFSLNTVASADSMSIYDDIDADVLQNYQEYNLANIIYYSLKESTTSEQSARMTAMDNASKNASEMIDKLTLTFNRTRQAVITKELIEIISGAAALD
Source text: 8A, TEM image of PC3 cells. Representative TEM micrograph of aurB-treated cells depicting the intraritochondrial localization of aurB-GNRs (arrowheads) and mitochondria](Mt) swelling. Scale bar: 600 nm. Mt: mitochondria. […] Coomassie-stained SDS-PAGE gels are shown (8B). The protein band at ˜35 kDa (arrowhead) was identified as ATP5C using mass spectrometry analysis. The identified fragments are indicated in green underlined sequence (SEQ ID NO: 4)(8C).
Pull-down assay and protein identification: PC3 cells were washed twice with PBS, and the mitochondrial fraction was prepared with a Qproteome mitochondria isolation kit (Qiagen). […] The peptides were then preincubated with streptavidin-agarose beads for 4 hr. After washing, the beads were boiled, and the released proteins were subjected to SDS-PAGE analysis. A protein band of ˜35 kDa was subjected to microcapillary LC/MS/MS for protein identification (Harvard Medical School, Taplin Mass Spectrometry Facility). For IB, proteins were transferred to nitrocellulose membranes. After blocking with 5% BSA in TBST, the membranes were incubated with anti-ATP5C antibody at 1:25,000 in 5% BSA/TBST (Abcam) for 16 hr at 4° C. The secondary antibody was applied (anti-goat IgG-HRP; Santa Cruz Biotechnology). The signal was detected using enhanced chemiluminescence (ECL).

[8] = system: DU145 prostate cancer cells; assay: MTT cell viability assay, DU145 prostate cancer cells; format: cell-based, human; conditions: DU145 (p53-mutant, AR−), 24-72 hr; paclitaxel 1 nM
Source text: as §4, §3

PC3 cells [9] = assay: Annexin-V apoptosis assay by flow cytometry, PC3; format: cell-based, human; conditions: PC3, 48 hr; Ptxl 1 nM, p28 50 μM, aurA/aurB 0.5-50 μM
Description: as §1, §2

In the case of “LVK GGE AEA ANI ANA GLS AGP AAN YLPA [aurA]”, the apoptotic cell death (DU145 cells) is reported as “very little effect”, the water solubility [1] is reported as “highly water-soluble” and the “cytotoxic effect (MTT cell viability)” value [2] is reported as “not active”. The “effect on mitochondrial membrane potential (JC-1)” value (PC3 cells [3]) was “did not impact”, the apoptotic cell death [4] was “very little effect” and the apoptotic cell death (LNCaP cells) was “very little effect”. The “cellular membrane toxicity (LDH release)” value (PC3 cells [5]) was “Neither aurA nor aurB induced cellular membrane toxicity at any concentrations”, the “cytotoxic effect (MTT cell viability)” value [6] was “not active” and the “anti-proliferative effect (MTT cell viability)” value (Human cancer cells) was “little effect at any concentration tested”. The “binding to ATP5C (pull-down of ~35 kDa protein, IB)” value [7] was “did not”, the “cytotoxic effect (MTT cell viability)” value [8] was “not active” and the apoptotic cell death (PC3 cells [9]) was “very little effect”.
